Data set [1] in a line: Binding affinity to Methyl-lysine (unknown origin) assessed as dissociation constant. Further details: species or system Homo sapiens.
Data set [2] can be described thus: Binding affinity to trimethyl-lysine (unknown origin) assessed as dissociation constant. Further details: species or system Homo sapiens.
Data set [3] in a line: Inhibition of influenza A virus A/H3N2 neuraminidase.
The test system of another data set is Caco-2. Nature of the data set: Anticancer activity against human Caco-2 cells assessed as inhibition of cell viability. It counts as functional, cell-based.
The test system of another data set is HT-29. Briefly: Anticancer activity against human HT-29 cells assessed as reduction in cell viability incubated for 24 hrs by MTT assay. It counts as functional, cell-based. To be noted: HT-29, 24 h.
A further data set addresses bovine serum albumin (Bos taurus, UniProt P02769). Briefly: Inhibition of bovine serum albumin at 1 uM by SPR analysis relative to control. The note with it: cattle.

bovine serum albumin, sequence (P02769 whole entry): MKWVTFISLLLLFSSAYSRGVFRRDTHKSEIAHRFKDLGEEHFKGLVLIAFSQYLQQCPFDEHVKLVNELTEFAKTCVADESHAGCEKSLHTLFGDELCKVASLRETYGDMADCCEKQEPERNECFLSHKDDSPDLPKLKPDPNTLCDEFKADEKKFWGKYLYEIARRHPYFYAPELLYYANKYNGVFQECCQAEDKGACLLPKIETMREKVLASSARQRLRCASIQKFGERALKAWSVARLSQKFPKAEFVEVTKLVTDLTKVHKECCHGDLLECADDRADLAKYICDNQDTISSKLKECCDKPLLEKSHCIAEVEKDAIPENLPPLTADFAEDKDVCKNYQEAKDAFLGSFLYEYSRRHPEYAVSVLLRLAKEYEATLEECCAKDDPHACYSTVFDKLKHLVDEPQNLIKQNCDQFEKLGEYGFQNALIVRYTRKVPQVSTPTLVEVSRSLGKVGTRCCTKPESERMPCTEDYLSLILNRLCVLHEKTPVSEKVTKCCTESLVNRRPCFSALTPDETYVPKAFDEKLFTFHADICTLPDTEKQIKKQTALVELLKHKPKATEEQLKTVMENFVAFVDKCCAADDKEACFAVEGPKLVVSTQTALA

For the compound `O=S(=O)(O)c1cc2c(O)c(c1)Cc1cc(S(=O)(=O)O)cc(c1O)Cc1cc(S(=O)(=O)O)cc(c1O)Cc1cc(S(=O)(=O)O)cc(c1O)C2`, the Kd amounted to 15.6 µM in data set [1] and 27 µM in data set [2].

`O=S(=O)(O)c1cc2c(O)c(c1)Cc1cc(S(=O)(=O)O)cc(c1O)Cc1cc(S(=O)(=O)O)cc(c1O)Cc1cc(S(=O)(=O)O)cc(c1O)Cc1cc(S(=O)(=O)O)cc(c1O)Cc1cc(S(=O)(=O)O)cc(c1O)Cc1cc(S(=O)(=O)O)cc(c1O)Cc1cc(S(=O)(=O)O)cc(c1O)C2` registered an IC50 in data set [3] of 6.4 µM.

Regarding `CCCCCCOc1c2cc(P(=O)(O)O)cc1Cc1cc(P(=O)(O)O)cc(c1OCCCCCC)Cc1cc(P(=O)(O)O)cc(c1OCCCCCC)Cc1cc(P(=O)(O)O)cc(c1OCCCCCC)C2`, the IC50 with Caco-2 was found to be 3.88 µM; in the data set with HT-29 it was 8.79 µM.

In the case of `CC[C@@]1(O)C(=O)OCc2c1cc1n(c2=O)Cc2cc3ccccc3nc2-1` [CAMPTOTHECIN], at 1 µM the inhibition against bovine serum albumin was 98%.

Compound `COc1cccc2c1C(=O)c1c(O)c3c(c(O)c1C2=O)C[C@@](O)(C(=O)CO)C[C@@H]3O[C@H]1C[C@H](N)[C@H](O)[C@H](C)O1` [DOXORUBICIN] registered an inhibition at 1 µM at bovine serum albumin of 87%.

`CO[C@@]12[C@H](COC(N)=O)C3=C(C(=O)C(C)=C(N)C3=O)N1C[C@@H]1N[C@@H]12` [MITOMYCIN]: testing at 1 µM against bovine serum albumin gave an inhibition of 94%.
